Measured values published in patent US7737127B2, “2-propynyl adenosine analogs having A2A agonist activity and compositions thereof” (University of Virginia Patent Foundation, priority 2001, dated 2010).

Legend:
[1] = target: recombinant human A2A receptors (Homo sapiens, UniProt P29274); test: Radioligand competition binding to recombinant human A2A receptors in Sf9 cell membranes; settings: A2A ± SEM, Ki from competition binding, Sf9 cell membranes
human neutrophils = test: Human neutrophil oxidative activity, luminol-enhanced chemiluminescence; type: cell-based; settings: for PMN oxid + roli (-log EC50): human neutrophil experiment w/Rolipram; for PMN oxid (-log EC50) / EC50: human neutrophil experiment w/o Rolipram; for EC50: Homo sapiens, Neutrophil, read-out: PMN oxid (-log EC50) (converted)
Description: Chemiluminescence Methods: Lumninol enhanced chemiluminescence, a measure of neutrophil oxidative activity, is dependent upon both superoxide production and mobilization of the granule enzyme myeloperoxidase. The light is emitted from unstable high-energy oxygen species such as hypochlorous acid and singlet oxygen generated by activated neutrophils.
The plate was incubated 5 min (37 C) and then fMLP (50 l in HA; final concentration […]) was added to all wells.
Data are presented as peak chemiluminescence as percent of activity in the absence of an adenosine agonist. The EC50 was determined using PRISM software. All compounds were tested with PMNs from three separate donors.
Lummol-enhanced chemiluminescence, a measure of neutrophil oxidative activity, is dependent upon both superoxide production and mobilization of the lysosomal granule enzyme myeloperoxidase. The light is emitted from unstable high-energy oxygen species generated by activated neutrophils. Purified neutrophils (5-10×10^5/ml) were incubated in Hanks balanced salt solution containing 0.1% human serum albumin (1 ml) with the tested A2A agonist with or without rolipram and with or without tumor necrosis factor-alpha (1 U/ml) for 30 minutes at 37° C. in a shaking water bath. […] Chemiluminescence is reported as relative peak light emitted (=height of the curve) compared to samples with tumor necrosis factor-alpha and without agonist or rolipram.

human A1 AR = target: T1, human A1 AR (Homo sapiens, UniProt P30542); test: Radioligand competition binding (125I-ABA) to human A1 AR in CHO K1 cell membranes; settings: for Ki: A1 ± SEM, Ki from competition binding, 125I-ABA, CHO K1 cell membranes; for A1/A2A: selectivity ratio A1 over A2A
T1 sequence (P30542 1-326): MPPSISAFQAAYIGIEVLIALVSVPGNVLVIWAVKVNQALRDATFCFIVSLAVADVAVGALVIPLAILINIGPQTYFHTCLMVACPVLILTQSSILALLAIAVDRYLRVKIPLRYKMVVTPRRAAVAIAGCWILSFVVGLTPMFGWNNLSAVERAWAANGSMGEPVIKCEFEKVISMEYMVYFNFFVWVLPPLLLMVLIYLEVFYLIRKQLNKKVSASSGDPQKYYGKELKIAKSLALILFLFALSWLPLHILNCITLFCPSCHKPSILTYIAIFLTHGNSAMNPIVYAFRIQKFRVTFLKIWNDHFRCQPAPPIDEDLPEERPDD

A3 AR = target: T2, A3 AR (Homo sapiens, UniProt P0DMS8); test: Radioligand competition binding (125I-ABA) to human A3 AR in HEK 293 cell membranes; settings: for Ki: A3 ± SEM, Ki from competition binding, 125I-ABA, HEK 293 cell membranes; for A3/A2A: selectivity ratio A3 over A2A
T2 sequence (P0DMS8 1-318): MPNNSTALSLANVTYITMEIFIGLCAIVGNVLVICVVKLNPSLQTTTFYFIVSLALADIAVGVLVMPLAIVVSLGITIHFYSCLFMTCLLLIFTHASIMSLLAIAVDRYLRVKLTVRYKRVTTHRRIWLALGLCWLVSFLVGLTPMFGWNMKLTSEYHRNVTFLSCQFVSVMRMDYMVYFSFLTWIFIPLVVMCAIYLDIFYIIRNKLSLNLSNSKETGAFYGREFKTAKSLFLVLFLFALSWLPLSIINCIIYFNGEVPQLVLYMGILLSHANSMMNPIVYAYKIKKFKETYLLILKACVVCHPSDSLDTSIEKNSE

recombinant human A2A receptors, sequence (P29274 whole entry): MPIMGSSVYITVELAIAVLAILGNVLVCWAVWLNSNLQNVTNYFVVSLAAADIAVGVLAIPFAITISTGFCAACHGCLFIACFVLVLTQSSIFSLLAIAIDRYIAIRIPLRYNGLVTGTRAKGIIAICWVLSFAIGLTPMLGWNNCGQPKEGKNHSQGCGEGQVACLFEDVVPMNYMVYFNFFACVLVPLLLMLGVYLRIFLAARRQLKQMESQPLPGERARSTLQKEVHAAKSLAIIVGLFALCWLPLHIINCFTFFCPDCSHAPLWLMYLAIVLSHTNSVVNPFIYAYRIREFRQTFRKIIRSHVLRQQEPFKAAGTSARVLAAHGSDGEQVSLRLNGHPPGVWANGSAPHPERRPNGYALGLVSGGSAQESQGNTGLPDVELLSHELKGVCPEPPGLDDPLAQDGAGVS

Row | Ki [1] [nM] | PMN oxid + roli (-log EC50) (human neutrophils) | PMN oxid (-log EC50) (human neutrophils) | Ki (human A1 AR) [nM] | A1/A2A (human A1 AR) | Ki (A3 AR) [nM] | A3/A2A (A3 AR) | EC50 (human neutrophils) [nM] | Compound
1 | 0.7 ± 0.07 | 9.67 | 8.57 | 24.2 ± 6.2 | 36.1 | 38.9 ± 4.8 | 58.1 | – | CCNC(=O)[C@H]1O[C@@H](n2cnc3c(N)nc(C#CC4(O)CCCCC4C)nc32)C(O)C1O (single isomer, unassigned) [JR-3181B, 5-[6-Amino-2-(1-hydroxy-2-methyl-cyclohexylethynyl)-purin-9-yl]-3,4-dihydroxytetrahydrofuran-2-carboxylic acid ethylamide]
2 | 11.9 ± 1.3 | 7.65 | 6.42 | 29.6 ± 4.8 | 2.5 | 31.1 ± 7.2 | 2.6 | – | CCNC(=O)[C@H]1O[C@@H](n2cnc3c(N)nc(C#CC4(O)CCCCNC4=O)nc32)C(O)C1O (single isomer, unassigned) [JR-3243A, 5-[6-Amino-2-(3-hydroxy-2-oxo-azepan-3-ylethynyl)purin-9-yl]-3,4-dihydroxytetrahydrofuran-2-carboxylic acid ethylamide]
3 | 2.25 ± 0.35 | 8.91 | 7.81 | 12 ± 5 | 5.3 | 3.34 ± 0.48 | 1.5 | – | CCNC(=O)[C@H]1O[C@@H](n2cnc3c(N)nc(C#CC4(O)CCCCNC4=O)nc32)C(O)C1O (single isomer, unassigned) [JR-3243B, 5-[6-Amino-2-(3-hydroxy-2-oxo-azepan-3-ylethynyl)purin-9-yl]-3,4-dihydroxytetrahydrofuran-2-carboxylic acid ethylamide]
4 | 29.6 ± 1.2 | 7.72 | – | 189 ± 19 | 6.4 | 29 ± 10 | 1.0 | 912 | CCNC(=O)[C@H]1O[C@@H](n2cnc3c(N)nc(C#CCC4CCC(C(=O)O)CC4)nc32)C(O)C1O (stereo in doubt) [ATL-146a, 4-{3-[6-Amino-9-(5-ethylcarbamoyl-3,4-dihydroxytetrahydrofuran-2-yl)-9H-purin-2-yl]-prop-2-ynyl}-cyclohexanecarboxylic acid]
5 | 1.1 ± 0.2 | 9.46 | – | 71 ± 14 | 64.5 | 231 ± 91 | 210.0 | 3.09 | CCNC(=O)[C@H]1O[C@@H](n2cnc3c(N)nc(C#CCC4CCC(COC(C)=O)CC4)nc32)C(O)C1O (stereo in doubt) [ATL-193, Acetic acid 4-{3-[6-amino-9-(5-ethylcarbamoyl-3,4-dihydroxytetrahydrofuran-2-yl)-9H-purin-2-yl]-prop-2-ynyl}-cyclohexylmethyl ester]
6 | 1.5 ± 0.01 | 8.7 | – | 19 ± 1 | 12.6 | 76 ± 6 | 50.3 | 32.4 | CCNC(=O)[C@H]1O[C@@H](n2cnc3c(N)nc(C#CCC4CCC(CO)CC4)nc32)C(O)C1O (stereo in doubt) [ATL-2037, 5-{6-Amino-2-[3-(4-hydroxymethyl-cyclohexyl)-prop-1-ynyl]-purin-9-yl}-3,4-dihydroxytetrahydrofuran-2-carboxylic acid ethylamide]
7 | 3.8 ± 2 | 8.66 | – | 14 ± 0.8 | 3.7 | 61 ± 6 | 16.3 | 42.7 | CCNC(=O)[C@H]1O[C@@H](n2cnc3c(N)nc(C#CCC4CCC(CN(C)C)CC4)nc32)C(O)C1O (stereo in doubt) [JR-3023, 5-{6-Amino-2-[3-(4-dimethylaminomethyl-cyclohexyl)-prop-1-ynyl]-purin-9-yl}-3,4-dihydroxytetrahydrofuran-2-carboxylic acid ethylamide]
8 | 1.6 ± 0.02 | 8.67 | – | 15.1 ± 3.9 | 9.7 | 26 ± 14 | 16.7 | 49 | CCNC(=O)[C@H]1O[C@@H](n2cnc3c(N)nc(C#CCC4CCC(C(=O)OCCN)CC4)nc32)C(O)C1O (stereo in doubt) [JR-3033, 4-{3-[6-Amino-9-(5-ethylcarbamoyl-3,4-dihydroxy-tetrahydrofuran-2-yl)-9H-purin-2-yl]-prop-2-ynyl}-cyclohexanecarboxylic acid 2-amino-ethyl ester]
9 | 4.1 ± 0.9 | 8.68 | – | 113 ± 11 | 27.6 | 93 ± 21 | 22.7 | 45.7 | CCNC(=O)C1CCC(CC#Cc2nc(N)c3ncn([C@@H]4O[C@H](C(=O)NCC)C(O)C4O)c3n2)CC1 (stereo in doubt) [JR-3037, 5-{6-Amino-2-[3-(4-ethylcarbamoyl-cyclohexyl)-prop-1-ynyl]-purin-9-yl}-3,4-dihydroxytetrahydrofuran-2-carboxylic acid ethylamide]
10 | 1.8 ± 0.2 | 8.64 | – | 36 ± 2 | 20.0 | 28 ± 3 | 15.6 | 31.6 | CCNC(=O)[C@H]1O[C@@H](n2cnc3c(N)nc(C#CCC4CCC(C(N)=O)CC4)nc32)C(O)C1O (stereo in doubt) [JR-3055, 5-{6-Amino-2-[3-(4-carbamoyl-cyclohexyl)-prop-1-ynyl]purin-9-yl}-3,4-dihydroxytetrahydrofuran-2-carboxylic acid ethylamide]
11 | 3.6 ± 0.5 | 8.29 | – | 55 ± 13 | 15.3 | 28 ± 13 | 7.8 | 102 | CCNC(=O)[C@H]1O[C@@H](n2cnc3c(N)nc(C#CCC4CCC(C(=O)NC)CC4)nc32)C(O)C1O (stereo in doubt) [JR-3065, 5-{6-Amino-2-[3-(4-methylcarbamoyl-cyclohexyl)-prop-1-ynyl]-purin-9-yl}-3,4-dihydroxytetrahydrofuran-2-carboxylic acid ethylamide]
12 | 2.2 ± 0.2 | 8.51 | – | 20.3 ± 4.5 | 9.2 | 17.8 ± 5.5 | 8.1 | 46.8 | CCNC(=O)[C@H]1O[C@@H](n2cnc3c(N)nc(C#CCC4CCC(CC)CC4)nc32)C(O)C1O (stereo in doubt) [JR-3087, 5-{6-Amino-2-[3-(4-ethyl-cyclohexyl)-prop-1-ynyl]-purin-9-yl}-3,4-dihydroxytetrahydrofuran-2-carboxylic acid ethylamide]

Row | Compound | Ki [1] [nM] | PMN oxid + roli (-log EC50) (human neutrophils) | PMN oxid (-log EC50) (human neutrophils) | Ki (human A1 AR) [nM] | A1/A2A (human A1 AR) | Ki (A3 AR) [nM] | A3/A2A (A3 AR) | EC50 (human neutrophils) [nM]
13 | CCNC(=O)[C@H]1O[C@@H](n2cnc3c(N)nc(C#CCC4CCC(C(=O)OCCNC(=O)OC(C)(C)C)CC4)nc32)C(O)C1O (stereo in doubt) [JR-3021, 4-{3-[6-Amino-9-(5-ethylcarbamoyl-3,4-dihydroxy-tetrahydrofuran-2-yl)-9H-purin-2-yl]-prop-2-ynyl}-cyclohexanecarboxylic acid 2-tert-butoxycarbonylamino-ethyl ester] | 1.6 ± 0.5 | 8.58 | – | 107 ± 10 | 66.9 | 41 ± 1 | 25.6 | 26.3
